In assay [1] the target is T1, PPAR-γ receptor (Homo sapiens, UniProt P37231).
T1 sequence (P37231 238-505 limits assumed): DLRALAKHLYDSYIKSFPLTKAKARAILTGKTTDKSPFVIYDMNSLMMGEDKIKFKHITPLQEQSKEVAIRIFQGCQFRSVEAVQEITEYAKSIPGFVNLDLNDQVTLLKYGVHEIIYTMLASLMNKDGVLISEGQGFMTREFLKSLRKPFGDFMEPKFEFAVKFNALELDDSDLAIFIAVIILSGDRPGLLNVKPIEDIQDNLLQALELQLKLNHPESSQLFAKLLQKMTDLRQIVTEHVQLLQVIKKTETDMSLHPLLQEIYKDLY
Description: cell-based. An excerpt:
FIG. 14: Activity of a number of compounds of the invention at the PPAR-γ receptor in cell based system (GeneBlazer) versus rosglitazone control.

Assay [2] has as its target T2, PPAR-γ receptor (Homo sapiens, UniProt P37231).
T2 sequence (P37231 1-505): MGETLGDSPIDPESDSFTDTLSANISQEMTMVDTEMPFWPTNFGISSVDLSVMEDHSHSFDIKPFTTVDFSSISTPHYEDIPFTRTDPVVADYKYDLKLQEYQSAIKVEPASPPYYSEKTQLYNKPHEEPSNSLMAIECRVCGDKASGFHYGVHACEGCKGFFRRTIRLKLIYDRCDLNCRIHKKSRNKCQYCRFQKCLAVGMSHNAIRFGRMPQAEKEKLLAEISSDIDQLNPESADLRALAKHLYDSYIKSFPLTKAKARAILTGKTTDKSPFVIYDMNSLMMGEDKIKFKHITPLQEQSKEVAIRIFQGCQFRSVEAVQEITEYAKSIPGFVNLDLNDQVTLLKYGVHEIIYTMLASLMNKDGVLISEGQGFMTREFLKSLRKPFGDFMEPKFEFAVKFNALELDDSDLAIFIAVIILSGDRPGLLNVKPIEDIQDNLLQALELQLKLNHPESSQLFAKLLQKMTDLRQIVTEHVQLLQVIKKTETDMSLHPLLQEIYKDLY
In words: biochemical. It counts as biochemical.

pEC50: −log10 of the molar value.

Take `Cc1c(C(=O)c2cccc3ccccc23)c2ccccc2n1CCNc1ccc(C(=O)O)c(O)c1` [DWIN1 (IX), 2-Hydroxy-4-{2-[2-methyl-3-(naphthalene-1-carbonyl)-indol-yl]-ethylamino}-benzoic acid]: the pEC50 at PPAR-γ receptor [1] was 6.10; at PPAR-γ receptor [2], 6.31.
As for `Cc1c(C(=O)c2cccc3ccccc23)c2ccccc2n1CCNc1ccc(O)c(C(=O)O)c1` [DWIN2 (X), 2-Hydroxy-5-{2-[2-methyl-3-(naphthalene-1-carbonyl)-indol-1-yl]-ethylamino}-benzoic acid], the pEC50 at PPAR-γ receptor [1] is 5.98; at PPAR-γ receptor [2], 6.45.
With `Cc1c(CCNc2ccc(C(=O)O)c(O)c2)c2ccccc2n1C(=O)c1cccc(Cl)c1Cl` [DWIN8 (XII), 4-{2-[1-(2,3-Dichloro-benzoyl)-2-methyl-1H-indol-3-yl]-ethylamino}-2-hydroxy-benzoic acid], the “activity in initial dose-response curves” value at PPAR-γ receptor [2] (initial dose-response curves, statement follows the PPAR-γ cell free table) is recorded as “not active”.

For the origin of these results see patent US20110039808A1, “Multitarget Compounds Active at a PPAR and Cannabinoid Receptor” (priority 2007, published 2011).
